Experimental data from ChEMBL document CHEMBL1781900, “Synthesis and peptide incorporation of an unnatural amino acid containing activity-based probe for protein tyrosine phosphatases” (Bioorg Med Chem Lett, 2009).
Changes are numbered by the printed parent chain. The source made the active and inactive calls. No cut-off for these calls is given here.

Legend:
[1] = target: T1, Tyrosine-protein phosphatase non-receptor type 1 (Homo sapiens) (UniProt P18031); test: Binding affinity to purified recombinant PTP1B using streptaive HRP at 200 uM after 1 hr by Western blotting analysis
T1 sequence (whole entry): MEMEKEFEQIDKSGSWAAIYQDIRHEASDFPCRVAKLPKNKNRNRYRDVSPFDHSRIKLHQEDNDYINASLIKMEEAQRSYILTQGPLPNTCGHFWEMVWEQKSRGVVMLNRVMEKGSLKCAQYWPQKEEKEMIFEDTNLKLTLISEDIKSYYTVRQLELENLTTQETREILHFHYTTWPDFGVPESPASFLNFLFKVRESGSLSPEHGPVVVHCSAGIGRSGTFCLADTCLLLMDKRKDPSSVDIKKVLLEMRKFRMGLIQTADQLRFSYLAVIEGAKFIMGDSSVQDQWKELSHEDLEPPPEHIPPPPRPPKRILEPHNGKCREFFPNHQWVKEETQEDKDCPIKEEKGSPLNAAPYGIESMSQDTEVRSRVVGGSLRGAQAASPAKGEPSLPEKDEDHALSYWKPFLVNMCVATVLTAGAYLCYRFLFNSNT

[2] = target: T1, Tyrosine-protein phosphatase non-receptor type 1 (Homo sapiens); test: Binding affinity to purified recombinant PTP1B using streptaive HRP at 20 uM after 1 hr by Western blotting analysis
[3] = target: Protein tyrosine phosphatase type IVA 3 (Homo sapiens) (UniProt O75365); test: Binding affinity to purified recombinant PTP4A3 using streptaive HRP at 20 uM after 1 hr by Western blotting analysis
Sequence of Protein tyrosine phosphatase type IVA 3 (Homo sapiens) (O75365 whole entry): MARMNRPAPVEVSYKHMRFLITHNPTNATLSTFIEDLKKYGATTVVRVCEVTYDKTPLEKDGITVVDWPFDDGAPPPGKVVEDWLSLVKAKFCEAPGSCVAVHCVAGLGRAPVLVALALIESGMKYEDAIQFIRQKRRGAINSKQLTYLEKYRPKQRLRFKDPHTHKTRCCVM

Jurkat = test: Binding affinity to PTP1B in human Jurkat cell lysate at 0.8 mM after 1 hr by Western blotting analysis in presence of alpha-bromobenzylphosphonate; assay type: cell-free
[4] = target: Protein tyrosine phosphatase type IVA 3 (Homo sapiens) (UniProt O75365); test: Binding affinity to purified recombinant PTP4A3 using streptaive HRP at 200 uM by Western blotting analysis
[5] = test system: T2, Tyrosine-protein phosphatase non-receptor type 1 (Homo sapiens), P18031 [C215S]; test: Binding affinity to purified recombinant dPTP1B C215S mutant using streptaive HRP at 200 uM after 1 hr by Western blotting analysis
T2 sequence (whole entry): T1 sequence (whole entry) with C215S

Escherichia coli [6] = test: Binding affinity to PTP4A3 in Escherichia coli lysate at 0.8 mM after 1 hr by Western blotting analysis in presence of alpha-bromobenzylphosphonate
Escherichia coli [7] = test: Binding affinity to PTP1B in Escherichia coli lysate at 0.8 mM after 1 hr by Western blotting analysis

Activity [1]: Active | Activity [2]: Active | Activity [3]: inactive | Activity [4]: Active | Activity [5]: inactive | Activity (Escherichia coli [6]): Active | Activity (Escherichia coli [7]): Active
SMILES: NC(=O)[C@H](Cc1ccc(OP(=O)(O)O)c(C(F)F)c1)NC(=O)[C@H](CC(=O)O)NC(=O)Cc1ccc(C(F)(F)P(=O)(O)O)cc1
Activity (Jurkat): Active
